{
  "source": "patent US7973062B2",
  "about": "“Androgen receptor-ablative agents” (The Ohio State University Research Foundation, priority 2008, dated 2011)",
  "format_in_all_cases": "cell-based",
  "key": {"PPARγ": {"biological_target": "T1, PPARγ (Homo sapiens, UniProt P37231)", "T1 construct": "In PC-3 cells transfected with a reporter construct (PPRE-x3-TK-Luc); endogenous in cells; host or cells: PC-3", "T1 sequence (P37231 1-505)": "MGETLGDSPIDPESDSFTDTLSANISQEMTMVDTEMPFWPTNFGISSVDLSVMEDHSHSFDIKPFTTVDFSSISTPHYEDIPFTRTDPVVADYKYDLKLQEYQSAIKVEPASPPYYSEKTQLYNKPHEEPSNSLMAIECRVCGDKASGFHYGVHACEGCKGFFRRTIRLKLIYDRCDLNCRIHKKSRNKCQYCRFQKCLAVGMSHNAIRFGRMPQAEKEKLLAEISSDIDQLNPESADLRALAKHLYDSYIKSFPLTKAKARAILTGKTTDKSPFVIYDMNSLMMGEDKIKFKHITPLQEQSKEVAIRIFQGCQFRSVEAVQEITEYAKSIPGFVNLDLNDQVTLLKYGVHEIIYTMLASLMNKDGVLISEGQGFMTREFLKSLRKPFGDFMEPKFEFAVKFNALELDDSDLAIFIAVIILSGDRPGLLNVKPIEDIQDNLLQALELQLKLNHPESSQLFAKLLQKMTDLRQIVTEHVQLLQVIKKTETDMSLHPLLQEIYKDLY", "experiment": "PPRE-luciferase reporter assay (PPRE-x3-TK-Luc) in PC-3 cells", "settings": "PC-3 cells transfected with PPRE-x3-TK-Luc", "source_text": "Transfection and Luciferase assay. The 3.6-kilobase AR promoter-linked reporter plasmid p-3600ARCAT was kindly provided by Dr. Chawnshang Chang (University of Rochester Medical Center, Rochester, N.Y.). The AR promoter gene (−3600 to +550) encompassing the transcription start site was isolated by using PCR to generate hAR-luc with suitable primers. The fragment was subcloned into the pGL3 luciferase reporter vector (Promega, Madison, Wis.) at KpnI and BglII in the multiple cloning site. The PPRE-x3-TK-Luc reporter vector contains three copies of the PPAR-response element (PPRE) upstream of the thymidine kinase promoter-luciferase fusion gene and was kindly provided by Dr. Bruce Spiegelman (Harvard University, Cambridge, Mass.). The pCMVSp1 plasmid was purchased from Origene Technologies, Inc. (Rockville, Md.). LNCaP or PC3 cells were transfected with 5 μg of individual plasmids in an Amaxa Nucleofector using a cell line-specific nucleofector kit according to the manufacturer's protocol (Amaxa Biosystems, Cologne, Germany), and then seeded in 6-well plates at 5×10^5 cells per well for 48 h. […] For each transfection, herpes simplex virus thymidine kinase promoter-driven Renilla reniformis luciferase was used as an internal control for normalization.\nFifty-μl aliquots of the lysates were added to 96-well plates, and luciferase activity was monitored after adding 100 μl of luciferase substrate (Promega) each well by using a MicroLumatPlus LB96V luminometer (Berthold Technologies, Oak Ridge, Tenn.) with the WinGlow software package. All transfection experiments were carried out in six replicate."}, "androgen receptor (AR)": {"system": "androgen receptor (AR)", "experiment": "Immunocytochemical analysis of AR in LNCaP cells", "settings": "5 μM, 48 h", "procedure": "Immunocytochemical Analysis. Cells were seeded onto coverslips in six-well plates (2.5×10^5 cells/well) for 24 h followed by exposure to 5 μM compound 12 for an additional 48 h. After extensive washing with PBS, cells were fixed and permeabilized with PBS containing 0.1% Triton X-100 for 1 h, and then incubated with anti-AR (1:100 dilution) in PBS containing 0.1% Triton X-100, 0.2% bovine serum albumin, 0.5 mM PMSF, and 1 mM DTT at room temperature for 12 h followed by Alexa Fluor 488-conjugated goat anti-mouse IgG (1:100; Molecular Probes) for 2 h. Nuclear counterstaining was performed by mounting with 4,6-diamidino-2-phenylindole (DAPI)-containing medium. Images of immunocytochemically labeled samples were observed using a Nikon microscope (Eclipse TE300)."}, "LNCaP and PC-3 cells": {"system": "LNCaP and PC-3 cells", "experiment": "Cell counting assay for cell proliferation, LNCaP versus PC-3", "settings": "Coulter counter (FIG. 5B)", "procedure": "Cell Counting and Cell Viability Assay. LNCaP or PC-3 cells were placed in six-well plates (2.5×10^5 cells/well) in 10% FBS-supplemented RPMI 1640 for 24 h, and treated with various concentrations of compound 12 for additional 24, 48 and 72 h. Cells were then trypsinized and counted by using a Coulter counter (Model Z1 D/T, Beckman Coulter, Fullerton, Calif.). Cell viability was assessed by using the 3-(4,5-dimethylthiazol-2-yl)-2,5-diphenyl-2H-tetrazolium bromide (MTT) assay in six replicates in 96-well plates. LNCaP or PC-3 cells were seeded at 6000 cells per well in 10% FBS-supplemented RPMI 1640 for 24 h, followed by treatments with various compounds in 5% FBS-supplemented RPMI 1640 at the indicated concentrations. Controls received DMSO at a concentration equal to that in drug-treated cells. After the end of incubation, MTT (0.5 mg/ml) in 10% FBS-supplemented RPMI 1640 was added to each well, and cells were incubated at 37° C. for 2 hours. Medium was removed and the reduced MTT dye was solubilized in DMSO (200 μl/well). Absorbance was determined at 570 nm by a 96-well plate reader."}},
  "data": [
    {"smiles": "CC1(CN2C(=O)S/C(=C\\c3ccc(O)c(C(F)(F)F)c3)C2=O)CCCCC1", "note": "[Compound 12, 5-(4-Hydroxy-3-trifluoromethyl-benzylidene)-3-(1-methyl-cyclohexylmethyl)-thiazolidine-2,4-dione]", "values": [
      {"measurement": "PPARγ activation (in words)", "setting": "PPARγ", "result": "lacked appreciable activity"},
      {"measurement": "AR levels in the nucleus", "setting": "androgen receptor (AR)", "result": "substantial decrease in AR levels in the nucleus"},
      {"measurement": "potency in inhibiting proliferation of LNCaP cells compared to PC-3 cells", "setting": "LNCaP and PC-3 cells", "result": "at least twofold higher potency"}
    ]}
  ]
}
